Reference: ChEMBL document CHEMBL5724914, “Linking interpersonal differences in gut microbiota composition and drug biotransformation activity” (2024)

Assays:
[1] = The drug is tested on WLS-086 corresponding to human gut metagenome with ENA study accession number: PRJEB37062 and ENA sample accession number: ERS12561752 for biotransformation under anaerobic condition. The drug concentrations were measured over 9 timepoints collected between 0 and 24 hours of incubation by liquid-chromatography-coupled mass spectrometry (LC–MS); conditions: 2 µM
[2] = human gut metagenome, 24 h, 2 µM
[3] = The drug is tested on WLS-090 corresponding to human gut metagenome with ENA study accession number: PRJEB37062 and ENA sample accession number: ERS12561753 for biotransformation under anaerobic condition. The drug concentrations were measured over 9 timepoints collected between 0 and 24 hours of incubation by liquid-chromatography-coupled mass spectrometry (LC–MS); conditions: 2 µM
[4] = human gut metagenome, 24 h, 2 µM; remark: listed apart in the source
[5] = The drug is tested on Z-028 corresponding to mouse gut metagenome with ENA study accession number: PRJEB37062 and ENA sample accession number: ERS12561827 for biotransformation under anaerobic condition. The drug concentrations were measured over 9 timepoints collected between 0 and 24 hours of incubation by liquid-chromatography-coupled mass spectrometry (LC–MS); conditions: 2 µM
[6] = The drug is tested on WLS-038 corresponding to human gut metagenome with ENA study accession number: PRJEB37062 and ENA sample accession number: ERS12561745 for biotransformation under anaerobic condition. The drug concentrations were measured over 9 timepoints collected between 0 and 24 hours of incubation by liquid-chromatography-coupled mass spectrometry (LC–MS); conditions: 2 µM
[7] = The drug is tested on Z-023 corresponding to metagenome with ENA study accession number: PRJEB37062 and ENA sample accession number: ERS12561822 for biotransformation under anaerobic condition. The drug concentrations were measured over 9 timepoints collected between 0 and 24 hours of incubation by liquid-chromatography-coupled mass spectrometry (LC–MS); conditions: 2 µM
[8] = human gut metagenome, 24 h, 2 µM; remark: listed apart in the source
[9] = The drug is tested on Z-010 corresponding to metagenome with ENA study accession number: PRJEB37062 and ENA sample accession number: ERS12561810 for biotransformation under anaerobic condition. The drug concentrations were measured over 9 timepoints collected between 0 and 24 hours of incubation by liquid-chromatography-coupled mass spectrometry (LC–MS); conditions: 2 µM
[10] = The drug is tested on Z-018 corresponding to pig gut metagenome with ENA study accession number: PRJEB37062 and ENA sample accession number: ERS12561817 for biotransformation under anaerobic condition. The drug concentrations were measured over 9 timepoints collected between 0 and 24 hours of incubation by liquid-chromatography-coupled mass spectrometry (LC–MS); conditions: 2 µM
[11] = The drug is tested on WLS-310 corresponding to human gut metagenome with ENA study accession number: PRJEB37062 and ENA sample accession number: ERS12561785 for biotransformation under anaerobic condition. The drug concentrations were measured over 9 timepoints collected between 0 and 24 hours of incubation by liquid-chromatography-coupled mass spectrometry (LC–MS); conditions: 2 µM
[12] = The drug is tested on Z-026 corresponding to metagenome with ENA study accession number: PRJEB37062 and ENA sample accession number: ERS12561825 for biotransformation under anaerobic condition. The drug concentrations were measured over 9 timepoints collected between 0 and 24 hours of incubation by liquid-chromatography-coupled mass spectrometry (LC–MS); conditions: 2 µM
[13] = human gut metagenome, 24 h, 2 µM; remark: listed apart in the source
[14] = The drug is tested on Z-021 corresponding to metagenome with ENA study accession number: PRJEB37062 and ENA sample accession number: ERS12561820 for biotransformation under anaerobic condition. The drug concentrations were measured over 9 timepoints collected between 0 and 24 hours of incubation by liquid-chromatography-coupled mass spectrometry (LC–MS); conditions: 2 µM
[15] = The drug is tested on Z-024 corresponding to pig gut metagenome with ENA study accession number: PRJEB37062 and ENA sample accession number: ERS12561823 for biotransformation under anaerobic condition. The drug concentrations were measured over 9 timepoints collected between 0 and 24 hours of incubation by liquid-chromatography-coupled mass spectrometry (LC–MS); conditions: 2 µM
[16] = The drug is tested on WLS-220 corresponding to human gut metagenome with ENA study accession number: PRJEB37062 and ENA sample accession number: ERS12561769 for biotransformation under anaerobic condition. The drug concentrations were measured over 9 timepoints collected between 0 and 24 hours of incubation by liquid-chromatography-coupled mass spectrometry (LC–MS); conditions: 2 µM
[17] = human gut metagenome, 24 h, 2 µM; remark: listed apart in the source
[18] = human gut metagenome, 24 h, 2 µM; remark: listed apart in the source
[19] = human gut metagenome, 24 h, 2 µM; remark: listed apart in the source
[20] = The drug is tested on Z-009 corresponding to pig gut metagenome with ENA study accession number: PRJEB37062 and ENA sample accession number: ERS12561809 for biotransformation under anaerobic condition. The drug concentrations were measured over 9 timepoints collected between 0 and 24 hours of incubation by liquid-chromatography-coupled mass spectrometry (LC–MS); conditions: 2 µM
Note: call rule not given here.

CN(C)C(=O)Oc1cc(OC(=O)N(C)C)cc(C(O)CNC(C)(C)C)c1 (stereo not given) [BAMBUTEROL]
Bacterial Biotransformation [1]: Compound metabolized
Bacterial Biotransformation [2]: Compound metabolized
Bacterial Biotransformation [3]: Compound metabolized
Bacterial Biotransformation [4]: Compound metabolized
Bacterial Biotransformation [5]: Compound NOT metabolized
Bacterial Biotransformation [6]: Compound NOT metabolized
Bacterial Biotransformation [7]: Compound metabolized
Bacterial Biotransformation [8]: Compound metabolized
Bacterial Biotransformation [9]: Compound NOT metabolized
Bacterial Biotransformation [10]: Compound NOT metabolized
Bacterial Biotransformation [11]: Compound metabolized
Bacterial Biotransformation [12]: Compound NOT metabolized
Bacterial Biotransformation [13]: Compound NOT metabolized
Bacterial Biotransformation [14]: Compound metabolized
Bacterial Biotransformation [15]: Compound NOT metabolized
Bacterial Biotransformation [16]: Compound metabolized
Bacterial Biotransformation [17]: Compound metabolized
Bacterial Biotransformation [18]: Compound NOT metabolized
Bacterial Biotransformation [19]: Compound NOT metabolized
Bacterial Biotransformation [20]: Compound metabolized
